Measurements from patent publication US20180155344A1, “TRICYCLIC PIPERIDINE COMPOUNDS” (ACTELION PHARMACEUTICALS LTD, priority 2015, published 2018).
pIC50: −log10 of the molar value.

target: T1, human TPH1 (Homo sapiens, UniProt P17752); assay: biochemical
T1 sequence (P17752 1-444): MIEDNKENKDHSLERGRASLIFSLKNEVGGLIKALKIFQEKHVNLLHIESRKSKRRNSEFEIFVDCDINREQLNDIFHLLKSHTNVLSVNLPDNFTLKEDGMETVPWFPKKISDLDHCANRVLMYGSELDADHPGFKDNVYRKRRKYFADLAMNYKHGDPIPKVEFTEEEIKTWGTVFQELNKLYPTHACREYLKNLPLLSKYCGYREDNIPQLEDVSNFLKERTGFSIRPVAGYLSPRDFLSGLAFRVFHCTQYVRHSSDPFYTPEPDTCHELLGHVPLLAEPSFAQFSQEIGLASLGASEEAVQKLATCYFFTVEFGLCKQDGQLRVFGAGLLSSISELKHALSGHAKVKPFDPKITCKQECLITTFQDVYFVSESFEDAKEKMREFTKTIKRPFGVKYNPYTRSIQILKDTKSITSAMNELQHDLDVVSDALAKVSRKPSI
In short: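 Inhibition is derived from 5-hydroxy-L-tryptophan fluorescence (540 nm emission, 300 nm excitation) after perchloric acid stop, relative to DMSO vehicle. Recombinant full-length human enzyme (40-80 nM) reacts with 40 μM tryptophan plus 100 μM methyltetrahydropterin, pH 7.6 Tris/DTT/catalase, 15° C, 60 min.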

SMILES	pIC50
O=C(COc1ccc2ccccc2c1)N1CCc2nc3cc(C(F)(F)F)ccn3c2C1c1ccc2c(c1)OCCO2 (centres unmarked) [Example 3.17.1, 1-(1-(2,3-dihydrobenzo[b][1,4]dioxin-6-yl)-7-(trifluoromethyl)-3,4-dihydroimidazo[1,2-a:5,4-c′]dipyridin-2(1H)-yl)-2-(naphthalen-2-yloxy)ethan-1-one]	6.86
Cc1c(CN2CCOCC2)ccc(OCC(=O)N2CCc3nc4cc(C(F)(F)F)ccn4c3C2c2cnn(-c3ccccc3)c2)c1C (centres unmarked) [Example 3.41.3, 2-(2,3-dimethyl-4-(morpholinomethyl)phenoxy)-1-(1-(1-phenyl-1H-pyrazol-4-yl)-7-(trifluoromethyl)-3,4-dihydroimidazo[1,2-a:5,4-c′]dipyridin-2(1H)-yl)ethan-1-one]	7.17
COc1cc(C2c3c(nc4cc(C(F)(F)F)ccn34)CCN2C(=O)COc2ccc3ccccc3c2)ccc1OCCN(C)C (centres unmarked) [Example 3.15.1, 1-(1-(4-(2-(dimethylamino)ethoxy)-3-methoxyphenyl)-7-(trifluoromethyl)-3,4-dihydroimidazo[1,2-a:5,4-c′]dipyridin-2(1H)-yl)-2-(naphthalen-2-yloxy)ethan-1-one]	7.15
O=C(COc1ccc(CN2CCOCC2)cc1Cl)N1CCc2nc3cc(C(F)(F)F)ccn3c2C1c1ccc(OCC(F)(F)F)nc1 (centres unmarked) [Example 3.8.1, 2-(2-chloro-4-(morpholinomethyl)phenoxy)-1-(1-(6-(2,2,2-trifluoroethoxy)pyridin-3-yl)-7-(trifluoromethyl)-3,4-dihydroimidazo[1,2-a:5,4-c′]dipyridin-2(1H)-yl)ethan-1-one]	7.07
COc1ccc(C2c3c(nc4cc(C(F)(F)F)ccn34)CCN2C(=O)COc2ccc3ccncc3c2)cc1OC (centres unmarked) [Example 3.1.20, 1-(1-(3,4-dimethoxyphenyl)-7-(trifluoromethyl)-3,4-dihydroimidazo[1,2-a:5,4-c′]dipyridin-2(1H)-yl)-2-(isoquinolin-7-yloxy)ethan-1-one]	7.72
COc1ccc(C2c3c(nc4cc(C(F)(F)F)ccn34)CCN2C(=O)COc2ccc3c(c2C)CCN(C(=O)OC(C)(C)C)C3)c(F)c1 (centres unmarked) [Example 3.3.4, tert-butyl 6-(2-(1-(2-fluoro-4-methoxyphenyl)-7-(trifluoromethyl)-3,4-dihydroimidazo[1,2-a:5,4-c′]dipyridin-2(1H)-yl)-2-oxoethoxy)-5-methyl-3,4-dihydroisoquinoline-2(1H)-carboxylate]	6.75
CCc1cc(N2CCOCC2)ccc1OCC(=O)N1CCc2nc3cc(C(F)(F)F)ccn3c2C1c1ccc(OC)c(OC)c1 (centres unmarked) [Example 3.1.33, 1-(1-(3,4-dimethoxyphenyl)-7-(trifluoromethyl)-3,4-dihydroimidazo[1,2-a:5,4-c′]dipyridin-2(1H)-yl)-2-(2-ethyl-4-morpholinophenoxy)ethan-1-one]	7.92
COc1cc(F)c(C2c3c(nc4cc(C(F)(F)F)ccn34)CCN2C(=O)COc2ccc3c(c2)CNCC3)cc1OC (centres unmarked) [Example 3.18.4, 1-(1-(2-fluoro-4,5-dimethoxyphenyl)-7-(trifluoromethyl)-3,4-dihydroimidazo[1,2-a:5,4-c′]dipyridin-2(1H)-yl)-2-((1,2,3,4-tetrahydroisoquinolin-7-yl)oxy)ethan-1-one]	7.14

The remaining lines, values ahead:

pIC50	SMILES
6.89	O=C(COc1ccc(CN2CCOCC2)cc1Cl)N1CCc2nc3cc(C(F)(F)F)ccn3c2C1c1ncc2ccccn12 (centres unmarked) [Example 3.43.1, 2-(2-chloro-4-(morpholinomethyl)phenoxy)-1-(1-(imidazo[1,5-a]pyridin-3-yl)-7-(trifluoromethyl)-3,4-dihydroimidazo[1,2-a:5,4-c′]dipyridin-2(1H)-yl)ethan-1-one]
6.57	O=C(COc1cccnc1Cl)N1CCc2nc3ccccn3c2C1c1ccc(Cl)cc1F (centres unmarked) [Example 1.4.3, 1-(1-(4-chloro-2-fluorophenyl)-3,4-dihydroimidazo[1,2-a:5,4-c′]dipyridin-2(1H)-yl)-2-((2-chloropyridin-3-yl)oxy)ethan-1-one]
7.82	COc1ccc(C2c3c(nc4cc(C(F)(F)F)ccn34)CCN2C(=O)COc2ccc3ccccc3c2)cc1OC (centres unmarked) [Example 3.1.1, 1-(1-(3,4-dimethoxyphenyl)-7-(trifluoromethyl)-3,4-dihydroimidazo[1,2-a:5,4-c′]dipyridin-2(1H)-yl)-2-(naphthalen-2-yloxy)ethan-1-one]
6.53	O=C(COc1ccc(CN2CCOCC2)cc1Cl)N1CCc2nc3cc(C(F)(F)F)ccn3c2C1c1ccnc(Cl)c1 (centres unmarked) [Example 3.56.2, 2-(2-chloro-4-(morpholinomethyl)phenoxy)-1-(1-(2-chloropyridin-4-yl)-7-(trifluoromethyl)-3,4-dihydroimidazo[1,2-a:5,4-c′]dipyridin-2(1H)-yl)ethan-1-one]
6.51	O=C(COc1ccc2ccccc2c1)N1CCc2nc3cc(C(F)(F)F)ccn3c2C1c1ccc(F)cc1 (centres unmarked) [Example 3.29.1, 1-(1-(4-fluorophenyl)-7-(trifluoromethyl)-3,4-dihydroimidazo[1,2-a:5,4-c′]dipyridin-2(1H)-yl)-2-(naphthalen-2-yloxy)ethan-1-one]
6.57	O=C(COc1ccc(CN2CCOCC2)cc1Cl)N1CCc2nc3cc(Cl)ccn3c2C1c1cccnc1F (centres unmarked) [Example 2.2.1, 1-(7-chloro-1-(2-fluoropyridin-3-yl)-3,4-dihydroimidazo[1,2-a:5,4-c′]dipyridin-2(1H)-yl)-2-(2-chloro-4-(morpholinomethyl)phenoxy)ethan-1-one]
6.82	O=C(COc1ccc2ccccc2c1)N1CCc2nc3cc(C(F)(F)F)ccn3c2C1c1ccc2c(c1)OCO2 (centres unmarked) [Example 3.16.1, 1-(1-(benzo[d][1,3]dioxol-5-yl)-7-(trifluoromethyl)-3,4-dihydroimidazo[1,2-a:5,4-c′]dipyridin-2(1H)-yl)-2-(naphthalen-2-yloxy)ethan-1-one]
6.80	COc1ccc(C2c3c(nc4cc(C(F)(F)F)ccn34)CCN2C(=O)COc2cc(-c3ccccc3)nn2C)cc1OC (centres unmarked) [Example 3.1.24]
7.48	Cc1ccc(C2c3c(nc4cc(C(F)(F)F)ccn34)CCN2C(=O)COc2nn(C)c(C(F)(F)F)c2Cl)c(F)c1 (centres unmarked) [Example 3.22.3, 2-((4-chloro-1-methyl-5-(trifluoromethyl)-1H-pyrazol-3-yl)oxy)-1-(1-(2-fluoro-4-methylphenyl)-7-(trifluoromethyl)-3,4-dihydroimidazo[1,2-a:5,4-c′]dipyridin-2(1H)-yl)ethan-1-one]
7.17	COc1ccc(C2c3c(nc4cc(C(F)(F)F)ccn34)CCN2C(=O)COc2cccnc2Cl)cc1OC (centres unmarked) [Example 3.1.15, 2-((2-chloropyridin-3-yl)oxy)-1-(1-(3,4-dimethoxyphenyl)-7-(trifluoromethyl)-3,4-dihydroimidazo[1,2-a:5,4-c′]dipyridin-2(1H)-yl)ethan-1-one]
7.72	O=C(COc1ccc(N2CCOCC2)cc1Cl)N1CCc2nc3cccnn3c2C1c1ccc(C2CC2)cc1F (centres unmarked) [Example 16.1.1, 2-(2-chloro-4-morpholinophenoxy)-1-(9-(4-cyclopropyl-2-fluorophenyl)-6,9-dihydropyrido[4′,3′:4,5]imidazo[1,2-b]pyridazin-8(7H)-yl)ethan-1-one]
6.91	COc1ccc(C2c3c(nc4ccc(Br)cn34)CCN2C(=O)COc2ccc3ccccc3c2)cc1OC (centres unmarked) [Example 10.1.1, 1-(8-bromo-1-(3,4-dimethoxyphenyl)-3,4-dihydroimidazo[1,2-a:5,4-c′]dipyridin-2(1H)-yl)-2-(naphthalen-2-yloxy)ethan-1-one]
